This note sets out measurements from patent US12247031B2, “Cyclobutyl pyrazolopyrimidine PDE9 inhibitors” (Merck Sharp & Dohme LLC, priority 2018, dated 2025).

In this experiment the target is Human PDE9 (PDE9A2) (Homo sapiens (Human), UniProt O76083). The experiment can be described thus: PDE9 IMAP fluorescence polarization assay. Type of experiment: biochemical. As to conditions: human PDE9A2, FAM-cGMP substrate 50 nM, IMAP FP, apparent inhibition constant. As for the experimental part:
The activity of the compounds in accordance with the present invention as PDE9 inhibitors may be readily determined without undue experimentation using a fluorescence polarization (FP) methodology that is well known in the art (Huang, W., et al., J. Biomol Screen. 2002, 7: 215).
In a typical experiment the PDE9 inhibitory activity of the compounds of the present invention was determined in accordance with the following experimental method.
Human PDE9 (PDE9A2, GenBank Accession No. NM_001001567), full length with N-terminal GST tag, was purchased from BPS Bioscience. The fluorescence polarization assay for cyclic nucleotide phosphodiesterases was performed using an IMAP® FP kit supplied by Molecular Devices, Sunnyvale, CA (product #R8139). IMAP® technology has been applied previously to phosphodiesterase assays (Huang, W., et al., J. Biomol Screen. 2002, 7: 215).
Fluorescence polarization (mP) was calculated from the parallel (S) and perpendicular (P) fluorescence of each sample well and the analogous values for the median control well, containing only substrate (So and Po), using the following equation: Polarization (mP)=1000*(S/So−P/Po)/(S/So+P/Po).
Dose-inhibition profiles for each compound were characterized by fitting the mP data to a four-parameter equation given below. The apparent inhibition constant (KI), the maximum inhibition at the low plateau relative to “100% Inhibition Control” (Imax; e.g. 1=>same as this control), the minimum inhibition at the high plateau relative to the “0% Inhibition Control” (Imin, e.g. 0=>same as the no drug control) and the Hill slope (nH) are determined by a non-linear least squares fitting of the mP values as a function of dose of the compound using an in-house software based on the procedures described by Mosser et al., JALA. 2003, 8: 54-63, using the following equation: […]
For `Cc1nnc(C2CCC2c2nc3c(c(C#N)nn3C(C)c3ccc(C(F)(F)F)nc3)c(=O)[nH]2)o1` (single isomer, unassigned) [Example 1, 6-(2-(5-methyl-1,3,4-oxadiazol-2-yl)cyclobutyl)-4-oxo-1-(1-(6-(trifluoromethyl)pyridin-3-yl)ethyl)-4,5-dihydro-1H-pyrazolo[3,4-d]pyrimidine-3-carbonitrile], the Ki came to 28.9 nM.

`Cc1nnc(C2CCC2c2nc3c(c(C#N)nn3C(C)c3ccc(C(F)(F)F)nc3)c(=O)[nH]2)o1` (single isomer, unassigned) [Example 2, 6-(2-(5-methyl-1,3,4-oxadiazol-2-yl)cyclobutyl)-4-oxo-1-(1-(6-(trifluoromethyl)pyridin-3-yl)ethyl)-4,5-dihydro-1H-pyrazolo[3,4-d]pyrimidine-3-carbonitrile]: the Ki turned out to be 118 nM.

As to `Cc1nnc(C2CCC2c2nc3c(c(C#N)nn3C(C)c3ccc(C(F)(F)F)nc3)c(=O)[nH]2)o1` (single isomer, unassigned) [Example 3, 6-(2-(5-methyl-1,3,4-oxadiazol-2-yl)cyclobutyl)-4-oxo-1-(1-(6-(trifluoromethyl)pyridin-3-yl)ethyl)-4,5-dihydro-1H-pyrazolo[3,4-d]pyrimidine-3-carbonitrile], the Ki was 221 nM.

Consider `Cc1nnc(C2CCC2c2nc3c(c(C#N)nn3C(C)c3ccc(C(F)(F)F)nc3)c(=O)[nH]2)o1` (single isomer, unassigned) [Example 4, 6-(2-(5-methyl-1,3,4-oxadiazol-2-yl)cyclobutyl)-4-oxo-1-(1-(6-(trifluoromethyl)pyridin-3-yl)ethyl)-4,5-dihydro-1H-pyrazolo[3,4-d]pyrimidine-3-carbonitrile], for which the Ki came to 229 nM.

Consider `Cc1nnc(C2CCC2c2nc3c(c(C#N)nn3C(C)c3ccc(C(F)(F)F)nc3)c(=O)[nH]2)o1` (single isomer, unassigned) [Example 5, 6-(2-(5-methyl-1,3,4-oxadiazol-2-yl)cyclobutyl)-4-oxo-1-(1-(6-(trifluoromethyl)pyridin-3-yl)ethyl)-4,5-dihydro-1H-pyrazolo[3,4-d]pyrimidine-3-carbonitrile], for which the Ki stood at 35 nM.

On to `Cc1nnc(C2CCC2c2nc3c(c(C#N)nn3C(C)c3ccc(C(F)(F)F)nc3)c(=O)[nH]2)o1` (single isomer, unassigned) [Example 6, 6-(2-(5-methyl-1,3,4-oxadiazol-2-yl)cyclobutyl)-4-oxo-1-(1-(6-(trifluoromethyl)pyridin-3-yl)ethyl)-4,5-dihydro-1H-pyrazolo[3,4-d]pyrimidine-3-carbonitrile], for which the Ki came to 42.7 nM.

On to `Cc1nnc(C2CCC2c2nc3c(c(C#N)nn3C(C)c3ccc(C(F)(F)F)nc3)c(=O)[nH]2)o1` (single isomer, unassigned) [Example 7, 6-(2-(5-methyl-1,3,4-oxadiazol-2-yl)cyclobutyl)-4-oxo-1-(1-(6-(trifluoromethyl)pyridin-3-yl)ethyl)-4,5-dihydro-1H-pyrazolo[3,4-d]pyrimidine-3-carbonitrile], for which the Ki is 167 nM.

Regarding `C[C@@H](c1ccc(C(F)(F)F)nc1)n1nc(C#N)c2c(=O)[nH]c(C3CCC3c3ccccn3)nc21` (single isomer, unassigned) [Example 8], the Ki turned out to be 0.034 nM.

Take `C[C@@H](c1ccc(C(F)(F)F)nc1)n1nc(C#N)c2c(=O)[nH]c(C3CCC3c3ccccn3)nc21` (single isomer, unassigned) [Example 9]: the Ki was found to be 2.72 nM.

As to `C[C@@H](c1ccc(C(F)(F)F)nc1)n1nc(C#N)c2c(=O)[nH]c(C3CCC3c3ccc(F)cn3)nc21` (single isomer, unassigned) [Example 13], the Ki is 608 nM.

As to `C[C@@H](c1ccc(C(F)(F)F)nc1)n1nc(C#N)c2c(=O)[nH]c(C3CCC3c3ccc(F)cn3)nc21` (single isomer, unassigned) [Example 14], the Ki came to 0.12 nM.

Take `C[C@@H](c1ccc(C(F)(F)F)nc1)n1nc(C#N)c2c(=O)[nH]c(C3CCC3c3ncccc3F)nc21` (single isomer, unassigned) [Example 15]: the Ki turned out to be 14.1 nM.

As for `C[C@@H](c1ccc(C(F)(F)F)nc1)n1nc(C#N)c2c(=O)[nH]c(C3CCC3c3ncccc3F)nc21` (single isomer, unassigned) [Example 16], the Ki came to 0.461 nM.

For `C[C@@H](c1ccc(C(F)(F)F)nc1)n1nc(C#N)c2c(=O)[nH]c(C3CCC3c3ccn(C)n3)nc21` (single isomer, unassigned) [Example 17], the Ki turned out to be 43.2 nM.

On to `C[C@@H](c1ccc(C(F)(F)F)nc1)n1nc(C#N)c2c(=O)[nH]c(C3CCC3c3ccn(C)n3)nc21` (single isomer, unassigned) [Example 18], for which the Ki turned out to be 35.9 nM.

For `C[C@@H](c1ccc(C(F)(F)F)nc1)n1nc(C#N)c2c(=O)[nH]c(C3CCC3c3ccnn3C)nc21` (single isomer, unassigned) [Example 19], the Ki was determined as 0.145 nM.

On to `C[C@@H](c1ccc(C(F)(F)F)nc1)n1nc(C#N)c2c(=O)[nH]c(C3CCC3c3cncnc3)nc21` (single isomer, unassigned) [Example 20], for which the Ki worked out at 0.602 nM.

As to `C[C@@H](c1ccc(C(F)(F)F)nc1)n1nc(C#N)c2c(=O)[nH]c(C3CCC3c3cncnc3)nc21` (single isomer, unassigned) [Example 21], the Ki is 176 nM.

In the case of `CC(c1ccc(C(F)(F)F)nc1)n1nc(C#N)c2c(=O)[nH]c(C3CCC3n3cc(C#N)cn3)nc21` (single isomer, unassigned) [Example 24, 6-(2-(4-cyano-1H-pyrazol-1-yl)cyclobutyl)-4-oxo-1-(1-(6-(trifluoromethyl)pyridin-3-yl)ethyl)-4,5-dihydro-1H-pyrazolo[3,4-d]pyrimidine-3-carbonitrile], the Ki was found to be 22.3 nM.

In the case of `CC(c1ccc(C(F)(F)F)nc1)n1nc(C#N)c2c(=O)[nH]c(C3CCC3n3cc(C#N)cn3)nc21` (single isomer, unassigned) [Example 25, 6-(2-(4-cyano-1H-pyrazol-1-yl)cyclobutyl)-4-oxo-1-(1-(6-(trifluoromethyl)pyridin-3-yl)ethyl)-4,5-dihydro-1H-pyrazolo[3,4-d]pyrimidine-3-carbonitrile], the Ki turned out to be 0.35 nM.

With `CC(c1ccc(C(F)(F)F)nc1)n1nc(C#N)c2c(=O)[nH]c(C3CCC3n3ccc(C#N)n3)nc21` (single isomer, unassigned) [Example 26, 6-(2-(3-cyano-1H-pyrazol-1-yl)cyclobutyl)-4-oxo-1-(1-(6-(trifluoromethyl)pyridin-3-yl)ethyl)-4,5-dihydro-1H-pyrazolo[3,4-d]pyrimidine-3-carbonitrile], the Ki was determined as 96.1 nM.

With `CC(c1ccc(C(F)(F)F)nc1)n1nc(C#N)c2c(=O)[nH]c(C3CCC3n3ccc(C#N)n3)nc21` (single isomer, unassigned) [Example 27, 6-(2-(3-cyano-1H-pyrazol-1-yl)cyclobutyl)-4-oxo-1-(1-(6-(trifluoromethyl)pyridin-3-yl)ethyl)-4,5-dihydro-1H-pyrazolo[3,4-d]pyrimidine-3-carbonitrile], the Ki amounted to 1.51 nM.

Turning to `CC(c1ccc(C(F)(F)F)nc1)n1nc(C#N)c2c(=O)[nH]c(C3CCC3n3ccc(C#N)n3)nc21` (single isomer, unassigned) [Example 28, 6-(2-(3-cyano-1H-pyrazol-1-yl)cyclobutyl)-4-oxo-1-(1-(6-(trifluoromethyl)pyridin-3-yl)ethyl)-4,5-dihydro-1H-pyrazolo[3,4-d]pyrimidine-3-carbonitrile], the Ki is 31 nM.

Turning to `CC(c1ccc(C(F)(F)F)nc1)n1nc(C#N)c2c(=O)[nH]c(C3CCC3n3ccc(C#N)n3)nc21` (single isomer, unassigned) [Example 29, 6-(2-(3-cyano-1H-pyrazol-1-yl)cyclobutyl)-4-oxo-1-(1-(6-(trifluoromethyl)pyridin-3-yl)ethyl)-4,5-dihydro-1H-pyrazolo[3,4-d]pyrimidine-3-carbonitrile], the Ki worked out at 0.256 nM.

Consider `C[C@@H](c1ccc(C(F)(F)F)nc1)n1nc(C#N)c2c(=O)[nH]c(C3CCC3n3cc(F)cn3)nc21` (single isomer, unassigned) [Example 34], for which the Ki worked out at 5.9 nM.

`C[C@@H](c1ccc(C(F)(F)F)nc1)n1nc(C#N)c2c(=O)[nH]c(C3CCC3n3cc(F)cn3)nc21` (single isomer, unassigned) [Example 35]: the Ki is 0.402 nM.

Turning to `C[C@@H](c1ccc(C(F)(F)F)nc1)n1nc(C#N)c2c(=O)[nH]c(C3CCC3n3cccn3)nc21` (single isomer, unassigned) [Example 36], the Ki was 148 nM.

Take `C[C@@H](c1ccc(C(F)(F)F)nc1)n1nc(C#N)c2c(=O)[nH]c(C3CCC3n3cccn3)nc21` (single isomer, unassigned) [Example 37]: the Ki worked out at 124 nM.

Regarding `C[C@@H](c1ccc(C(F)(F)F)nc1)n1nc(C#N)c2c(=O)[nH]c(C3CCC3n3cc(C4CC4)cn3)nc21` (single isomer, unassigned) [Example 38], the Ki amounted to 11 nM.

With `C[C@@H](c1ccc(C(F)(F)F)nc1)n1nc(C#N)c2c(=O)[nH]c(C3CCC3n3cc(C4CC4)cn3)nc21` (single isomer, unassigned) [Example 39], the Ki was 1.75 nM.
